Measurements published in ChEMBL document CHEMBL1128808, “Dioxolane cytosine nucleosides as anti-hepatitis B agents” (Bioorg Med Chem Lett, 1995).

Key:
Hepatoma cell line = assay: Antiviral activity against hepatitis B virus in human hepatoma cell line (2.2.15 cells); type: functional, cell-based
CCRF-CEM [1] = assay: Cytotoxicity in H1 CEM cells; type: functional, cell-based; conditions: Homo sapiens
[2] = Selectivity measured as the ratio between IC50 value and EC50 value; type: functional
CCRF-CEM [3] = assay: Compound was evaluated for cytotoxicity by inhibition of mitochondrial DNA synthesis; type: functional, cell-based; conditions: Homo sapiens

| Structure (SMILES) | EC50 (Hepatoma cell line) | IC50 (CCRF-CEM [1]) | Selectivity [2] | IC50 (CCRF-CEM [3]) |
| --- | --- | --- | --- | --- |
| O=c1[nH]c(=O)n([C@H]2CO[C@@H](CO)O2)cc1F | > 5 µM |  |  |  |
| Nc1ccn([C@@H]2CS[C@H](CO)O2)c(=O)n1 [LAMIVUDINE] | 0.01 µM | 50 µM |  | 50 µM |
| O=c1[nH]c(=O)n([C@H]2CO[C@@H](CO)O2)cc1Br | > 5 µM |  |  |  |
| O=c1ccn([C@H]2CO[C@@H](CO)O2)c(=O)[nH]1 | > 20 µM |  |  |  |

More lines, main results first:

| EC50 (Hepatoma cell line) | Structure (SMILES) | IC50 (CCRF-CEM [1]) | Selectivity [2] | IC50 (CCRF-CEM [3]) |
| --- | --- | --- | --- | --- |
| 5 µM | Nc1ccn([C@@H]2CO[C@@H](CO)O2)c(=O)n1 |  |  |  |
| 0.01 µM | Nc1ccn([C@H]2CO[C@@H](CO)O2)c(=O)n1 | 2.4 µM | 240 | > 10 µM |
| > 5 µM | Nc1ccn([C@H]2CO[C@H](CO)O2)c(=O)n1 | > 50 µM |  | > 50 µM |
| 0.0005 µM | Nc1ccn([C@@H]2CO[C@H](CO)O2)c(=O)n1 [TROXACITABINE] | 0.056 µM |  | > 1 µM |
